Experimental findings from US8829007B2 (priority 2009, dated 2014) are described below.

The term IC50 denotes the midpoint of a concentration-inhibition curve.

For experiment [1], the system named is influenza A virus (A/PR/8/34). Nature of the experiment: microbe, parasite or virus in culture. In kind it is cell-based.
The subject of experiment [2] is A/PR/8/34 influenza virus. Nature of the experiment: microbe, parasite or virus in culture. In kind it is cell-based.
Where [3] appears, read: CPE assay, A/PR/8/34 infected MDCK cells, class symbols, read-out: IC50 (mean all).
Where [4] appears, read: bDNA assay, A/PR/8/34 influenza virus replication in MDCK cells, class symbols, read-out: EC50 (mean all).
Setting [5] is: mean all, MDCK cells infected with A/PR/8/34, cell protection (CPE), read-out: IC50.
Where [6] appears, read: mean all, bDNA viral RNA in MDCK cells infected with A/PR/8/34, read-out: EC50.
The mark [7] stands for this setting: Influenza A virus, PR/8, MDCK, CPE assay, A/PR/8/34 infected MDCK cells, class symbols, read-out: IC50 (mean all).
The mark [8] stands for this setting: Influenza A virus, PR/8, MDCK, bDNA assay, A/PR/8/34 influenza virus replication in MDCK cells, class symbols, read-out: EC50 (mean all).
Setting [9] is: Influenza A virus, PR/8, MDCK, MDCK cells infected with A/PR/8/34, cell protection (CPE), read-out: IC50 (mean all).
Setting [10] is: Influenza A virus, PR/8, MDCK, MDCK cells infected with A/PR/8/34, bDNA viral RNA, read-out: EC50 (mean all).
Setting [11] is: Influenza A virus, PR/8, MDCK, mean all, A/PR/8/34 infected MDCK cells, CPE assay, read-out: IC50.
The mark [12] stands for this setting: Influenza A virus, PR/8, MDCK, mean all, A/PR/8/34 influenza virus in MDCK cells, bDNA assay, read-out: EC50.
[13] abbreviates: Influenza A virus, PR/8, MDCK, MDCK cells infected with A/PR/8/34, survival of infected cells, class symbols, read-out: IC50 (mean all).
Setting [14] is: Influenza A virus, PR/8, MDCK, MDCK cells infected with A/PR/8/34, replication of influenza virus (viral RNA, bDNA), class symbols, read-out: EC50 (mean all).
Setting [15] is: Influenza A virus, PR/8, MDCK, MDCK cells, A/PR/8/34, ATP readout, mean all, read-out: Cell Flu, MDCK protection, ATP (All: IC50: uM)(Mean (All)).
Setting [16] is: Influenza A virus, PR/8, 30 h, HA(−) 30 hr, A/PR/8, bDNA, mean all, read-out: Cell Influenza HA(−) 30 hr A/PR/8 bDNA:bDNA EC50 uM(Mean (All)).
[17] abbreviates: Influenza A virus, PR/8, MDCK, mean all, A/PR/8/34 infected MDCK cells, cell protection (CPE), read-out: IC50.
Where [18] appears, read: Influenza A virus, PR/8, mean all, A/PR/8/34 influenza virus replication, bDNA, read-out: EC50.

Read-outs that look alike come from different tables or passages of the source.

As to `CC(=O)N1CCC(Nc2nc(-c3c[nH]c4ncc(Cl)cc34)ncc2F)C(C(=O)O)C1` (stereo not drawn) [Compound 607], in experiment [1] (setting [3]), the IC50 was over 10 µM. For the same compound, in experiment [2] (setting [4]), the EC50 is over 3.3 µM.

In the case of “(R)—N-((1-(3-bromophenylsulfonyl)piperidin-3-yl)methyl)-2-(5-chloro-1H-pyrrolo[2,3-b]pyridin-3-yl)-5-fluoropyrimidin-4-amine [Compound 88]”, the IC50 in experiment [1] (read-out: IC50 (mean all)) was under 5 µM. Moreover, the EC50 in experiment [2] (read-out: EC50 (mean all)) is under 5 µM.

On to `O=C1NCC(CN2CCCC(Nc3nc(-c4c[nH]c5ncc(Cl)cc45)ncc3F)C2)O1` (stereo not drawn) [Compound 619], for which the 50% inhibitory concentration (IC50) in experiment [1] (setting [3]) was under 5 µM. In addition, the EC50 in experiment [2] (setting [4]) is under 5 µM.

On to `COCC(=O)NC1CCCC(Nc2nc(-c3c[nH]c4ncc(Cl)cc34)nc(C(C)(C)O)c2F)C1` (stereo not drawn) [Compound 715], for which the IC50 in experiment [1] (setting [5]) was under 5 µM. Moreover, the EC50 in experiment [2] (setting [6]) was under 5 µM.

On to `O=C(O)[C@@H]1CCC[C@H](Nc2nc(-c3c[nH]c4ncc(Cl)cc34)ncc2F)C1` [Compound 630], for which the 50% inhibitory concentration (IC50) in experiment [1] (setting [7]) was under 5 µM. Also, the EC50 in experiment [2] (setting [8]) was under 5 µM.

Take `Cc1cccc(S(=O)(=O)N2CCC[C@H](CNc3nc(-c4c[nH]c5ncc(Cl)cc45)ncc3F)C2)c1` [Compound 66, (R)-2-(5-chloro-1H-pyrrolo[2,3-b]pyridin-3-yl)-5-fluoro-N-((1-(m-tolylsulfonyl)piperidin-3-yl)methyl)pyrimidin-4-amine]: the IC50 in experiment [1] (setting [9]) was under 5 µM. The EC50 in experiment [2] (setting [10]) is under 5 µM.

For `Cc1cnc(-c2c[nH]c3ncc(Cl)cc23)nc1N[C@H]1CCCN(CC(N)=O)C1` [Compound 620], the half-maximal inhibitory concentration (IC50) in experiment [1] (setting [7]) lay within 5 to 20 µM. Besides, the EC50 in experiment [2] (setting [8]) was under 5 µM.

For `O=C(C(O)CO)N1CCCC(Nc2nc(-c3c[nH]c4ncc(Cl)cc34)ncc2F)C1` (stereo not drawn) [Compound 623], in experiment [1] (setting [3]), the half-inhibitory concentration (IC50) was under 5 µM. Also, the EC50 in experiment [2] (setting [4]) is under 5 µM.

As to `CS(=O)(=O)N[C@H]1CCCC[C@@H]1Nc1nc(-c2c[nH]c3ncc(Cl)cc23)ncc1F` [Compound 428, N-[(1S,2S)-2-[[2-(5-chloro-1H-pyrrolo[2,3-b]pyridin-3-yl)-5-fluoro-pyrimidin-4-yl]amino]cyclohexyl]methanesulfonamide], the IC50 in experiment [1] (Influenza A virus, PR/8, MDCK, exemplary values in text, survival of A/PR/8/34 infected cells, read-out: IC50) is 0.03 µM; in experiment [1] (setting [11]), under 5 µM. For the same compound, the EC50 in experiment [2] (setting [12]) is under 5 µM.

Consider `O=C(O)[C@@H]1CC[C@H](Nc2nc(-c3c[nH]c4ncc(Cl)cc34)ncc2F)C1` [Compound 566], for which, in experiment [1] (setting [13]), the half-inhibitory concentration (IC50) is under 5 µM. The EC50 in experiment [2] (setting [14]) is under 5 µM.

As to `CC#CCOC(=O)NC1CCCC(Nc2nc(-c3c[nH]c4ncc(Cl)cc34)ncc2F)C1` (stereo not drawn) [Compound 701], in experiment [1] (setting [5]), the IC50 is under 5 µM. Also, in experiment [2] (setting [6]), the EC50 was under 5 µM.

With `O=C(C1CCCC1)N1CCC[C@H](CNc2nc(-c3c[nH]c4ncc(Cl)cc34)ncc2F)C1` [Compound 99, (R)-(3-((2-(5-chloro-1H-pyrrolo[2,3-b]pyridin-3-yl)-5-fluoropyrimidin-4-ylamino)methyl)piperidin-1-yl)(cyclopentyl)methanone], the 50% inhibitory concentration (IC50) in experiment [1] (setting [9]) is under 5 µM. Also, in experiment [2] (setting [10]), the EC50 was under 5 µM.

As to `O=C(O)[C@H]1CCCC[C@@H]1Nc1nc(-c2c[nH]c3ncc(Cl)cc23)ncc1F` (racemic) [Compound 541, Trans-2-(2-(5-chloro-1H-pyrrolo[2,3-b]pyridin-3-yl)-5-fluoropyrimidin-4-ylamino)cyclohexanecarboxylic acid], the 50% inhibitory concentration (IC50) in experiment [1] (setting [13]) is under 5 µM. Besides, in experiment [2] (setting [14]), the EC50 was under 5 µM.

For the compound `CCC1(O)CCCC(Nc2nc(-c3c[nH]c4ncc(Cl)cc34)ncc2F)C1` (single isomer, unassigned) [Compound 710], the IC50 in experiment [1] (setting [5]) was under 5 µM. Also, in experiment [2] (setting [6]), the EC50 is under 5 µM.

With `O=C(O)[C@H]1C2CCC(CC2)[C@@H]1Nc1nc(-c2c[nH]c3ncc(Cl)cc23)ncc1F` [Compound 1184, (2S,3S)-3-((2-(5-chloro-1H-pyrrolo[2,3-b]pyridin-3-yl)-5-fluoropyrimidin-4-yl)amino)bicyclo[2.2.2]octane-2-carboxylic acid], the half-inhibitory concentration (IC50) in experiment [1] (setting [15]) was under 5 µM. Moreover, the EC50 in experiment [2] (setting [16]) was under 5 µM.

For `CC(=O)NC[C@]1(O)CCC[C@H](Nc2nc(-c3c[nH]c4ncc(Cl)cc34)ncc2F)C1` [Compound 857], in experiment [1] (setting [17]), the IC50 was under 5 µM. For the same compound, the EC50 in experiment [2] (setting [18]) was under 5 µM.

Regarding `C#CCCC(=O)N1CCC[C@@H](CNc2nc(-c3c[nH]c4ncc(Cl)cc34)ncc2F)C1` [Compound 52, (S)-1-(3-((2-(5-chloro-1H-pyrrolo[2,3-b]pyridin-3-yl)-5-fluoropyrimidin-4-ylamino)methyl)piperidin-1-yl)pent-4-yn-1-one], the half-inhibitory concentration (IC50) in experiment [1] (setting [9]) is under 5 µM. In experiment [2] (setting [10]), the EC50 is under 5 µM.

As to `O=C(O)[C@H]1C2CCC(CC2)[C@@H]1Nc1nc(-c2c[nH]c3ncc(F)cc23)ncc1F` [Compound 1070, (2S,3S)-3-((2-(5-fluoro-1H-pyrrolo[2,3-b]pyridin-3-yl)-5-fluoropyrimidin-4-yl)amino)bicyclo[2.2.2]octane-2-carboxylic acid], the IC50 in experiment [1] (setting [15]) was under 5 µM. The EC50 in experiment [2] (setting [16]) is under 5 µM.

Consider `CC[C@H](O)CN1CCCC(Nc2nc(-c3c[nH]c4ncc(Cl)cc34)ncc2F)C1` (stereo partly drawn) [Compound 538], for which the IC50 in experiment [1] (setting [13]) was under 5 µM. Also, the EC50 in experiment [2] (setting [14]) was under 5 µM.

As for `C[C@@]1(C(=O)O)CCCC(Nc2nc(-c3c[nH]c4ncc(Cl)cc34)ncc2F)C1` (stereo partly drawn) [Compound 826], the 50% inhibitory concentration (IC50) in experiment [1] (setting [17]) is under 5 µM. Also, the EC50 in experiment [2] (setting [18]) is under 5 µM.

`CS(=O)(=O)N1CCC[C@@H](CNc2nc(-c3c[nH]c4ncc(Cl)cc34)ncc2F)C1` [Compound 36, (S)-2-(5-chloro-1H-pyrrolo[2,3-b]pyridin-3-yl)-5-fluoro-N-((1-(methylsulfonyl)-piperidin-3-yl)methyl)pyrimidin-4-amine]: the concentration for half-maximal inhibition (IC50) in experiment [1] (setting [9]) was under 5 µM. For the same compound, the EC50 in experiment [2] (setting [10]) is under 5 µM.

With `CC(C)(O)C(=O)NC1CCCC(Nc2nc(-c3c[nH]c4ncc(Cl)cc34)ncc2F)C1` (stereo not drawn) [Compound 681], the half-maximal inhibitory concentration (IC50) in experiment [1] (setting [5]) was under 5 µM. In addition, the EC50 in experiment [2] (setting [6]) was under 5 µM.

Turning to `O=C(OC1CCOC1)N1CCC[C@H](Nc2nc(-c3c[nH]c4ncc(Cl)cc34)ncc2F)C1` (stereo partly drawn) [Compound 443], the IC50 in experiment [1] (setting [11]) is under 5 µM. Further, the EC50 in experiment [2] (setting [12]) is under 5 µM.

On to `CCNC(=O)[C@]1(O)CCC[C@H](Nc2nc(-c3c[nH]c4ncc(Cl)cc34)ncc2F)C1` [Compound 779, (1S,3S)-3-[[2-(5-chloro-1H-pyrrolo[2,3-b]pyridin-3-yl)-5-fluoro-pyrimidin-4-yl]amino]-N-ethyl-1-hydroxy-cyclohexanecarboxamide], for which the IC50 in experiment [1] (setting [17]) was under 5 µM. Also, the EC50 in experiment [2] (setting [18]) is under 5 µM.

Take `Cn1cnc(S(=O)(=O)N2CCC[C@H](CNc3nc(-c4c[nH]c5ncc(Cl)cc45)ncc3F)C2)c1` [Compound 91, (R)-2-(5-chloro-1H-pyrrolo[2,3-b]pyridin-3-yl)-5-fluoro-N-((1-(1-methyl-1H-imidazol-4-ylsulfonyl)piperidin-3-yl)methyl)pyrimidin-4-amine]: the IC50 in experiment [1] (setting [9]) was under 5 µM. In experiment [2] (setting [10]), the EC50 was under 5 µM.

As for `O=C(O)C1CCCC(Nc2nc(-c3c[nH]c4ncc(Cl)cc34)ncc2F)C1` (stereo not drawn) [Compound 696], in experiment [1] (setting [5]), the IC50 was under 5 µM. For the same compound, the EC50 in experiment [2] (setting [6]) is under 5 µM.

Turning to `O=C(c1ccc2c(c1)OCC2)N1CCC[C@H](CNc2nc(-c3c[nH]c4ncc(Cl)cc34)ncc2F)C1` [Compound 145, (R)-(3-((2-(5-chloro-1H-pyrrolo[2,3-b]pyridin-3-yl)-5-fluoropyrimidin-4-ylamino)methyl)piperidin-1-yl)(2,3-dihydrobenzofuran-6-yl)methanone], the IC50 in experiment [1] (setting [9]) is under 5 µM. Besides, the EC50 in experiment [2] (setting [10]) is under 5 µM.

Take `CC(=O)N[C@H]1CCC[C@H](Nc2nc(-c3c[nH]c4ncc(Cl)cc34)ncc2F)C1.CC(N)=O` (relative stereo) [Compound 457, N-[trans-3-[[2-(5-chloro-1H-pyrrolo[2,3-b]pyridin-3-yl)-5-fluoro-pyrimidin-4-yl]amino]cyclohexyl]acetamide acetamide]: the half-maximal inhibitory concentration (IC50) in experiment [1] (setting [11]) is under 5 µM. Moreover, the EC50 in experiment [2] (setting [12]) was under 5 µM.

Regarding `O=C(C1CCCCO1)N1CCCC(Nc2nc(-c3c[nH]c4ncc(Cl)cc34)ncc2F)C1` (stereo not drawn) [Compound 658], the IC50 in experiment [1] (setting [3]) is under 5 µM. Besides, the EC50 in experiment [2] (setting [4]) is under 5 µM.

Consider `CNC(=O)N1CCCC(Nc2nc(-c3c[nH]c4ncc(Cl)cc34)ncc2F)CC1` (stereo not drawn) [Compound 506, 4-(2-(5-chloro-1H-pyrrolo[2,3-b]pyridin-3-yl)-5-fluoropyrimidin-4-ylamino)-N-methylazepane-1-carboxamide], for which the half-maximal inhibitory concentration (IC50) in experiment [1] (setting [13]) is under 5 µM. In addition, the EC50 in experiment [2] (setting [14]) was under 5 µM.

In the case of `COC1CN(C(=O)C2CCCC(Nc3nc(-c4c[nH]c5ncc(Cl)cc45)ncc3F)C2)C1` (stereo not drawn) [Compound 720], the 50% inhibitory concentration (IC50) in experiment [1] (setting [5]) was under 5 µM. Further, the EC50 in experiment [2] (setting [6]) was under 5 µM.
